Test results taken from PubChem BioAssay AID1259407 (Chemical Carcinogenesis Research Information System (CCRIS), 2018).
Active and inactive are the calls of the source. The rule behind the calls is not given here.

System: CCRIS mutagenicity, Ames/micronucleus/aberration tests
Experiment: CCRIS mutagenicity studies
Conditions: Test System: AMES SALMONELLA TYPHIMURIUM, Method: PREINCUBATION

Measured: mutagenic call

O=C1CCc2ccccc2O1
inactive: Strain/Indicator: TA98, Metabolic Activation: HAMSTER, LIVER, S-9, AROCLOR 1254 (10%) inactive; negative | Strain/Indicator: TA98, Metabolic Activation: HAMSTER, LIVER, S-9, AROCLOR 1254 inactive; negative | Strain/Indicator: TA98, Metabolic Activation: NONE inactive; negative | Strain/Indicator: TA98, Metabolic Activation: RAT, LIVER, S-9, AROCLOR 1254 (10%) inactive; negative | Strain/Indicator: TA98, Metabolic Activation: RAT, LIVER, S-9, AROCLOR 1254 inactive; negative | Strain/Indicator: TA100, Metabolic Activation: HAMSTER, LIVER, S-9, AROCLOR 1254 (10%) inactive; negative | Strain/Indicator: TA100, Metabolic Activation: HAMSTER, LIVER, S-9, AROCLOR 1254 inactive; negative | Strain/Indicator: TA100, Metabolic Activation: NONE inactive; negative | Strain/Indicator: TA100, Metabolic Activation: RAT, LIVER, S-9, AROCLOR 1254 (10%) inactive; negative | Strain/Indicator: TA100, Metabolic Activation: RAT, LIVER, S-9, AROCLOR 1254 inactive; negative | Strain/Indicator: TA1535, Metabolic Activation: HAMSTER, LIVER, S-9, AROCLOR 1254 (10%) inactive; negative | Strain/Indicator: TA1535, Metabolic Activation: HAMSTER, LIVER, S-9, AROCLOR 1254 inactive; negative | Strain/Indicator: TA1535, Metabolic Activation: NONE inactive; negative | Strain/Indicator: TA1535, Metabolic Activation: RAT, LIVER, S-9, AROCLOR 1254 (10%) inactive; negative | Strain/Indicator: TA1535, Metabolic Activation: RAT, LIVER, S-9, AROCLOR 1254 inactive; negative | Strain/Indicator: TA1537, Metabolic Activation: HAMSTER, LIVER, S-9, AROCLOR 1254 (10%) inactive; negative | Strain/Indicator: TA1537, Metabolic Activation: HAMSTER, LIVER, S-9, AROCLOR 1254 inactive; negative | Strain/Indicator: TA1537, Metabolic Activation: NONE inactive; negative | Strain/Indicator: TA1537, Metabolic Activation: RAT, LIVER, S-9, AROCLOR 1254 (10%) inactive; negative | Strain/Indicator: TA1537, Metabolic Activation: RAT, LIVER, S-9, AROCLOR 1254 inactive; negative
